# Results published in patent US9107415B2, “2-(substituted-phenyl)-cyclopentane-1,3-dione compounds, and derivatives thereof” (Syngenta Limited, priority 2011, dated 2015).
# How the values were obtained:
# Type in all cases: in vivo
# [1] = system: Alopecurus myosuroides (ALOMY); test: Biological Example 1 glasshouse screen, pre-emergence herbicidal activity; details: 312 h, read-out: ALOMY percentage phytotoxicity
# Experimental: (§1) Seeds of a variety of test species were sown in standard soil in pots. After cultivation for one day (pre-emergence) or after 8 days cultivation (post-emergence) under controlled conditions in a glasshouse (at 24/16°C., day/night; 14 hours light; 65% humidity), the plants were sprayed with an aqueous spray solution derived from the formulation of the “technical”(i.e. unformulated) active ingredient in acetone/water (50:50) solution containing 0.5% Tween 20 (polyoxyethylene sorbitan monolaurate, CAS Registry Number 9005-64-5). The test plants were then grown in a glasshouse under controlled conditions in a glasshouse (at 24/16°C., day/night; 14 hours light; 65% humidity) and watered twice daily. After 13 days for pre- or post-emergence, the test was evaluated visually, and an assessed percentage phytotoxicity score given for each herbicidal application on each plant/weed species (with 100%=total damage to plant; 0%=no damage to plant).
# (§2) Test plants: Alopecurus myosuroides (ALOMY), Setaria faberi (SETFA), Echinochloa crus-galli (ECHCG), Solanum nigrum (SOLNI), Amaranthus retroflexus (AMARE) and Ipomoea hederacea (IPOHE). ALOMY, SETFA and ECHCG are grassy monocotyledonous weeds. SOLNI, AMARE and IPOHE are dicotyledonous (broadleaved) weeds.
# (§3) Test plants: Lolium perenne (LOLPE), Alopecurus myosuroides (ALOMY), Echinochloa crus-galli (ECHCG), and Avena fatua (AVEFA). All four of these are grassy monocotyledonous weeds.
# [2] = system: Echinochloa crus-galli (ECHCG); test: as above; details: 312 h, read-out: ECHCG percentage phytotoxicity
# Experimental: as §1, §2, §3
# Avena fatua (AVEFA) [3] = test: as above; details: 312 h, read-out: AVEFA percentage phytotoxicity
# Experimental: as §1, §3
# Lolium perenne (LOLPE) [4] = test: as above; details: 312 h, read-out: LOLPE percentage phytotoxicity
# Experimental: as §1, §3
# [5] = system: Alopecurus myosuroides (ALOMY); test: Biological Example 1 glasshouse screen, post-emergence herbicidal activity; details: 312 h, read-out: ALOMY percentage phytotoxicity
# Experimental: as §1, §2, §3
# [6] = system: Echinochloa crus-galli (ECHCG); test: as above; details: 312 h, read-out: ECHCG percentage phytotoxicity
# Experimental: as §1, §2, §3
# Avena fatua (AVEFA) [7] = test: as above; details: 312 h, read-out: AVEFA percentage phytotoxicity
# Experimental: as §1, §3
# Lolium perenne (LOLPE) [8] = test: as above; details: 312 h, read-out: LOLPE percentage phytotoxicity
# Experimental: as §1, §3
# [9] = system: Alopecurus myosuroides (ALOMY); test: Biological Example 2 post-emergence herbicidal activity (comparative data); details: 312 h, read-out: ALOMY percentage phytotoxicity
# Experimental: as §1
# (§4) Comparative herbicidal data are given for certain exemplified compounds with 4-(prop-1-ynyl)-2,6-dimethylphenyl or 4-(chloroethynyl)-2,6-dimethylphenyl headgroups, compared to the corresponding comparative compounds with 4-ethynyl-2,6-dimethylphenyl headgroups, as follows.
# (§5) Except where specified otherwise, the glasshouse screen for herbicidal activity is substantially the same as that presented in Biological Example 1 hereinabove. The weed abbreviations are as defined in Biological Example 1.
# Avena fatua (AVEFA) [10] = test: as above
# Experimental: as §1, §4, §5
# [11] = system: Echinochloa crus-galli (ECHCG); test: as above; details: 312 h, read-out: ECHCG percentage phytotoxicity
# Experimental: as §1, §4, §5
# Lolium perenne (LOLPE) [12] = test: as above
# Experimental: as §1, §4, §5
# [13] = system: Triticum aestivum, wheat (TRZAW); test: Biological Example 3 glasshouse screen, post-emergence, phytotoxicity on wheat; details: 360 h, read-out: TRZAW percentage phytotoxicity
# Experimental: (§6) Test Method: Seeds of a variety of test species are sown in standard soil in pots. After cultivation for one day (pre-emergence) or after 12 days cultivation (post-emergence) under controlled conditions in a glasshouse (warm climate species at 24/18°C., cool climate species at 20/16°C., both at day/night; 16 hours light; 65% humidity), the plants are sprayed with an aqueous spray solution derived from the formulation of the “technical”(i.e. unformulated) active ingredient dissolved in acetone plus IF50, at a 1:20 ratio of “technical”active ingredient to IF50. The IF50 contains about 10.56 weight % Emulsogen EL™(castor oil ethoxylate, CAS Registry number 61791-12-6), about 42.22 weight % N-methylpyrrolidone, and about 42.22 weight % DPG-Monoethyl ether (dipropylene glycol mono-ethyl ether). The adjuvant X-77 (a mixture of alkyl aryl polyoxyethylene glycols and free fatty acids in isopropanol, CAS Registry number 11097-66-8) is added to the aqueous spray solution to form a 0.2% v/v solution, before spraying onto the plants.
# (§7) The test plants are then grown in a glasshouse under controlled conditions in a glasshouse (at 24/18°C. or 20/16°C., day/night; 16 hours light; 65% humidity) and watered twice daily. After 15 days after application of the herbicide (15 DAA) (for post-emergence), and after 20 DAA (for pre-emergence), the test is evaluated visually, and an assessed percentage phytotoxicity score is given for each herbicidal application on each plant/weed species (with 100%=total damage to plant; 0%=no damage to plant).
# These give an approximate indication of the level of selectivity on wheat for these tested compounds, when a herbicide safener such as cloquintocet-mexyl is not used: […]
# [14] = system: Alopecurus myosuroides, blackgrass (ALOMY); test: Biological Example 3 glasshouse screen, post-emergence herbicidal activity; details: 360 h, read-out: ALOMY percentage phytotoxicity
# Experimental: as §6
# as §7, with “plant). […]” for “plant).”
# [15] = system: Avena fatua, wild oats (AVEFA); test: as above; details: 360 h, read-out: AVEFA percentage phytotoxicity
# Experimental: as §6
# as §7, with “plant). […]” for “plant).”
# [16] = system: Echinochloa crus galli, barnyardgrass (ECHCG); test: as above; details: 360 h, read-out: ECHCG percentage phytotoxicity
# Experimental: as §6
# as §7, with “plant). […]” for “plant).”
# [17] = system: Lolium perenne, perennial ryegrass (LOLPE); test: as above; details: 360 h, read-out: LOLPE percentage phytotoxicity
# Experimental: as §6
# as §7, with “plant). […]” for “plant).”
structure (smiles),measurement,setting,value
"CC#Cc1cc(C)c(C2=C(O)CC(Cc3ccccn3)C2=O)c(C)c1 (racemic) [Compound A-2, rac-2-(2,6-Dimethyl-4-prop-1-ynylphenyl)-4-(pyridin-2-ylmethyl)cyclopentane-1,3-dione]",pest or weed control at 250 g/ha,[1],100%
same,pest or weed control at 250 g/ha,[2],100%
same,pest or weed control at 250 g/ha,Avena fatua (AVEFA) [3],70%
same,pest or weed control at 250 g/ha,Lolium perenne (LOLPE) [4],100%
same,pest or weed control at 250 g/ha,[5],100%
same,pest or weed control at 250 g/ha,[6],100%
same,pest or weed control at 250 g/ha,Avena fatua (AVEFA) [7],100%
same,pest or weed control at 250 g/ha,Lolium perenne (LOLPE) [8],100%
same,pest or weed control at 15.625 g/ha,[9],90%
same,pest or weed control at 62.5 g/ha,[9],100%
same,AVEFA percentage phytotoxicity,Avena fatua (AVEFA) [10]; 15.625 g/ha application rate,80%
same,AVEFA percentage phytotoxicity,Avena fatua (AVEFA) [10]; 62.5 g/ha application rate,90%
same,pest or weed control at 15.625 g/ha,[11],100%
same,pest or weed control at 62.5 g/ha,[11],100%
same,LOLPE percentage phytotoxicity,Lolium perenne (LOLPE) [12]; 15.625 g/ha application rate,100%
same,LOLPE percentage phytotoxicity,Lolium perenne (LOLPE) [12]; 62.5 g/ha application rate,100%
same,plant injury at 30 g/ha,[13],30%
same,pest or weed control at 30 g/ha,[14],90%
same,pest or weed control at 30 g/ha,[15],70%
same,pest or weed control at 30 g/ha,[16],100%
same,pest or weed control at 30 g/ha,[17],90%
